Data on 19 molecules can be found in patent publication US20230086702A1, “SUBSTITUTED 2-AMINO-PYRAZOLYL-[1,2,4]TRIAZOLO[1,5A]PYRIDINE DERIVATIVES AND USE THEREOF” (The Johns Hopkins University, priority 2019, published 2023).

Where two headings read alike, the source gives them in different places.

In experiment [1] the target is T1, DLK (Homo sapiens, UniProt Q12852).
T1 construct: 10 nM DLK, catalytic domain, Carna Biosiences; purchased Carna Biosciences ('Carna Biosiences' [sic])
T1 sequence (Q12852 125-366 limits assumed): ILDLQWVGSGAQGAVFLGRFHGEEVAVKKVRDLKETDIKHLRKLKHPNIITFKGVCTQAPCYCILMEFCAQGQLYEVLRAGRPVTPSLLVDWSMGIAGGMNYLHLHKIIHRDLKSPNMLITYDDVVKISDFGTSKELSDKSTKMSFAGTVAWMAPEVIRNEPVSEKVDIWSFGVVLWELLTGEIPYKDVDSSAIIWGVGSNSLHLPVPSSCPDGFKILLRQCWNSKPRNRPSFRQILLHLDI
Kind of experiment: DLK biochemical assay (TR-FRET, MKK7 phosphorylation). Particulars: DLK catalytic domain, MKK7 substrate, 60 μM ATP. The method, then:
(§1) DLK assay is a biochemical assay format designed to screen for inhibitors of DLK. Enzymatic activity of DLK is measured by monitoring phosphorylation of the physiological substrate MKK7 (MAP2K7, Dual specificity mitogen-activated protein kinase kinase 7). Phosphorylation is detected by a TR-FRET system whereby His-tagged MKK7 is labeled by a XL665-labeled anti-His antibody (FRET acceptor, emission 665 nm). DLK phosphorylates MKK7 at T275/S277, which is detected by an Eu-labeled anti-phospho-MKK7 (T275/S277) antibody (FRET donor, excitation 340 nm). Phosphorylation of MKK7 results in an increased TR-FRET signal (Ratio XL665-channel/Eu-channel) and inhibition of enzymatic activity of DLK decreases the TR-FRET signal.
All indicated concentrations are final concentrations.
(§2) Detection buffer: 25 mM Tris/HCl pH 7.5, 100 mM EDTA, 100 mM NaCl, 200 mM KF, 0.01% Tween 20, 1:500 Smart Block.

The target of experiment [2] is T2, LZK (Homo sapiens, UniProt O43283).
T2 construct: 10 nM LZK, catalytic domain, Carna Biosiences in assay buffer; purchased Carna Biosciences ('Carna Biosiences' [sic])
T2 sequence (O43283 168-409 limits assumed): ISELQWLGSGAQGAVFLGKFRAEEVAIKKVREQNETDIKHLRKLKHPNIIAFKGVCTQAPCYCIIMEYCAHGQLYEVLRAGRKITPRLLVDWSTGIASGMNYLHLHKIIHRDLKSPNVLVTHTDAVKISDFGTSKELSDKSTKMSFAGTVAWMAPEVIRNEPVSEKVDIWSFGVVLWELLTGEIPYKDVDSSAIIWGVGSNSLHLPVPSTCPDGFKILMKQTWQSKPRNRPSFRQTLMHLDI
Briefly: LZK biochemical assay (TR-FRET, MKK7 phosphorylation). Particulars: LZK catalytic domain, MKK7 substrate, 15 μM ATP. The method, then:
as §1, with “LZK” for “DLK”, “LZK.” for “DLK.”, “T275/S277” for “T275/S277,”
All indicated concentrations final concentrations.
as §2
On the technique in general: Time-resolved FRET reads energy transfer from a long-lived donor to a nearby acceptor.

In experiment [3] the target is T2, LZK. The experiment is described as above. An outline of the steps:
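Read-out is HTRF: Eu-labelled anti-phospho-MKK7 (T275/S277) and XL665 anti-His, incubated 16 h at 32 °C, with a drop in signal marking inhibition. Reaction beforehand: 10 nM LZK kinase domain, 15 nM His-MKK7, 15 µM ATP (final) for 90 min at room temperature, pH 7.5.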

For experiment [4], the target named is T1, DLK. Kind of experiment: DLK biochemical assay (TR-FRET, MKK7 phosphorylation). An outline of the steps:
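TR-FRET read-out (665/Eu ratio) of MKK7 T275/S277 phosphorylation, with inhibition lowering the signal. Final conditions: 10 nM DLK catalytic domain, 15 nM MKK7, 60 μM ATP, 90 min at RT. Detection incubation 16 h at 37° C in 1536-well or 4° C in 384-well format.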

Take `CC[C@H](C)NC(=O)c1cc(-c2cnn(C3CCc4ccccc43)c2)cn2nc(N)nc12` (mixture of isomers) [Example I-13, 2-Amino-N-[(2S)-butan-2-yl]-6-[1-(2,3-dihydro-1H-inden-1-yl)-1H-pyrazol-4-yl][1,2,4]triazolo[1,5-a]pyridine-8-carboxamide]: the IC50 against DLK [1] was 0.068 µM; at LZK [2], 0.0077 µM.
`CC[C@H](C)NC(=O)c1cc(-c2cnn(C3CCOc4ccccc43)c2)cc2nc(N)nn12` (mixture of isomers) [Example I-16, 2-Amino-N-[(2S)-butan-2-yl]-7-[1-(3,4-dihydro-2H-chromen-4-yl)-1H-pyrazol-4-yl][1,2,4]triazolo[1,5-a]pyridine-5-carboxamide]: the results for the IC50 at DLK [1] and at LZK [2] were 0.022 µM and 0.0033 µM, respectively.
`CC[C@H](C)NC(=O)c1cc(-c2cnn(C3CCCc4ncccc43)c2)cc2nc(N)nn12` (mixture of isomers) [Example I-19, 2-Amino-N-[(2S)-butan-2-yl]-7-[1-(5,6,7,8-tetrahydroquinolin-5-yl)-1H-pyrazol-4-yl][1,2,4]triazolo[1,5-a]pyridine-5-carboxamide]: the 50% inhibitory concentration (IC50) against DLK [1] was 0.021 µM; on LZK [2], 0.0039 µM.
Turning to `CC[C@H](C)NC(=O)c1cc(-c2cnn(C3CCCc4cnccc43)c2)cc2nc(N)nn12` (mixture of isomers) [Example I-20, 2-Amino-N-[(2S)-butan-2-yl]-7-[1-(5,6,7,8-tetrahydroisoquinolin-5-yl)-1H-pyrazol-4-yl][1,2,4]triazolo[1,5-a]pyridine-5-carboxamide], the IC50 against DLK [1] turned out to be 0.011 µM; against LZK [2], 0.0044 µM.
For the molecule `CC[C@H](C)NC(=O)c1cc(-c2cnn(C3CCCc4ccncc43)c2)cc2nc(N)nn12` (mixture of isomers) [Example I-21, 2-Amino-N-[(2S)-butan-2-yl]-7-[1-(5,6,7,8-tetrahydroisoquinolin-8-yl)-1H-pyrazol-4-yl][1,2,4]triazolo[1,5-a]pyridine-5-carboxamide], the 50% inhibitory concentration (IC50) at DLK [1] amounted to 0.033 µM; against LZK [2], 0.0051 µM.
In the same order, the values of `CC[C@H](C)NC(=O)c1cc(-c2cnn(C3CCCc4cccnc43)c2)cc2nc(N)nn12` (mixture of isomers) [Example I-22, 2-Amino-N-[(2S)-butan-2-yl]-7-[1-(5,6,7,8-tetrahydroquinolin-8-yl)-1H-pyrazol-4-yl][1,2,4]triazolo[1,5-a]pyridine-5-carboxamide] are 0.027 µM and 0.013 µM.
Taken in the same sequence, the figures for `CC[C@H](C)NC(=O)c1cc(-c2cnn(C(c3ccccc3)C(C)C)c2)cc2nc(N)nn12` (mixture of isomers) [Example I-24, 2-Amino-N-[(2S)-butan-2-yl]-7-{1-[2-methyl-1-phenylpropyl]-1H-pyrazol-4-yl}[1,2,4]triazolo[1,5-a]pyridine-5-carboxamide] were 0.0027 µM and 0.023 µM.
Take `CC[C@H](C)NC(=O)c1cc(-c2cnn(C(c3ccccc3)C3CCC3)c2)cn2nc(N)nc12` (mixture of isomers) [Example I-27, 2-Amino-N-[(2S)-butan-2-yl]-6-{1-[cyclobutyl(phenyl)methyl]-1H-pyrazol-4-yl}[1,2,4]triazolo[1,5-a]pyridine-8-carboxamide]: the IC50 against DLK [1] is 0.0077 µM; on LZK [2] it was 0.39 µM.
Taken in the same sequence, the figures for `CC[C@H](C)NC(=O)c1cc(-c2cnn(C(c3ccccc3)C3(C)CC3)c2)cn2nc(N)nc12` (mixture of isomers) [Example I-28, 2-Amino-N-[(2S)-butan-2-yl]-6-{1[(1-methylcyclopropyl)(phenyl)methyl]-1H-pyrazol-4-yl}[1,2,4]triazolo[1,5-a]pyridine-8-carboxamide] were 0.0092 µM and 0.38 µM.
Taken in the same sequence, the figures for `CC[C@H](C)NC(=O)c1cc(-c2cnn(C(c3ccccc3)C3CC(F)(F)C3)c2)cn2nc(N)nc12` (mixture of isomers) [Example I-31, 2-Amino-N-[(2S)-butan-2-yl]-6-{1-[(3,3-difluorocyclobutyl)(phenyl)methyl]-1H-pyrazol-4-yl}[1,2,4]triazolo[1,5-a]pyridine-8-carboxamide] were 0.0038 µM and 0.15 µM.
In the case of `CC[C@H](C)NC(=O)c1cc(-c2cnn(C(c3ccccc3)C(C)(C)C)c2)cn2nc(N)nc12` (mixture of isomers) [Example I-34, 2-Amino-N-[(2S)-butan-2-yl]-6-{1-[2,2-dimethyl-1-phenylpropyl]-1H-pyrazol-4-yl}[1,2,4]triazolo[1,5-a]pyridine-8-carboxamide], the concentration for half-maximal inhibition (IC50) at DLK [1] turned out to be 0.0095 µM; against LZK [2] it was 0.52 µM.
Taken in the same sequence, the figures for `CC[C@H](C)NC(=O)c1cc(-c2cnn(C(CC(F)(F)F)c3ccccc3)c2)cn2nc(N)nc12` (mixture of isomers) [Example I-37, 2-Amino-N-[(2S)-butan-2-yl]-6-{1-[3,3,3-trifluoro-1-phenylpropyl]-1H-pyrazol-4-yl}[1,2,4]triazolo[1,5-a]pyridine-8-carboxamide] were 0.0036 µM and 0.24 µM.
In the same order, the values of `CC[C@H](C)NC(=O)c1cc(-c2cnn(C(COC)c3ccccc3)c2)cn2nc(N)nc12` (mixture of isomers) [Example I-40, 2-Amino-N-[(2S)-butan-2-yl]-6-[1-(2-methoxy-1-phenylethyl)-1H-pyrazol-4-yl][1,2,4]triazolo[1,5-a]pyridine-8-carboxamide] are 0.0045 µM and 0.067 µM.
Consider `CC[C@H](C)NC(=O)c1cc(-c2cnn(C(c3ccc(F)cc3)C(C)C)c2)cn2nc(N)nc12` (mixture of isomers) [Example I-43, 2-Amino-N-[(2S)-butan-2-yl]-6-{1-[1-(4-fluorophenyl)-2-methylpropyl]-1H-pyrazol-4-yl}[1,2,4]triazolo[1,5-a]pyridine-8-carboxamide], for which the concentration for half-maximal inhibition (IC50) was found to be 0.0029 µM against DLK [1] and 0.066 µM against LZK [2].
As to `CC[C@@H](c1ccc(C(F)(F)F)nc1)n1cc(-c2cc(-c3ccc(=O)n(CC(F)(F)F)c3)n3nc(N)nc3c2)cn1` [II-190], the concentration for half-maximal inhibition (IC50) on LZK [3] amounted to 0.0054 µM; at DLK [4], 0.0029 µM.
Regarding `Nc1nc2cc(-c3cnn(C(c4ccc(C(F)(F)F)nc4)C4CCOCC4)c3)cc(-c3ccc(=O)n(CC(F)(F)F)c3)n2n1` (centres unmarked) [II-191], the IC50 against LZK [3] is 0.0063 µM; at DLK [4], 0.0032 µM.
Taken in the same sequence, the figures for `CCc1nnc(-c2cc(-c3cnn(Cc4ccccc4)c3)cn3nc(N)nc23)s1` [II-197, 6-(1-Benzyl-1H-pyrazol-4-yl)-8-(5-ethyl-1,3,4-thiadiazol-2-yl)[1,2,4]triazolo[1,5-a]pyridin-2-amine] were 0.69 µM and 0.24 µM.
In the same order, the values of `CC(C)c1nnc(-c2cc(-c3cnn(Cc4ccccc4)c3)cn3nc(N)nc23)s1` [II-198, 6-(1-Benzyl-1H-pyrazol-4-yl)-8-[5-(propan-2-yl)-1,3,4-thiadiazol-2-yl][1,2,4]triazolo[1,5-a]pyridin-2-amine] are 0.26 µM and 0.15 µM.
`C[C@@H](CO)c1nnc(-c2cc(-c3cnn(Cc4cccc5cn[nH]c45)c3)cn3nc(N)nc23)s1` [II-199, (2S)-2-(5-{2-Amino-6-[1-(1H-indazol-7-ylmethyl)-1H-pyrazol-4-yl][1,2,4]triazolo[1,5-a]pyridin-8-yl}-1,3,4-thiadiazol-2-yl)propan-1-ol]: the half-inhibitory concentration (IC50) amounted to 0.41 µM against LZK [3] and 0.012 µM against DLK [4].

One may read the IC50 as the concentration needed to halve the response being measured.
